Test results reported in US9586951B2 (FUJIFILM Corporation, priority 2013, dated 2017).
pIC50: −log10 of the molar value.

Tests used:
ATM = target: T1, ATM (Homo sapiens, UniProt Q13315); test: ATM inhibition test (phosphorylation of Chk2 generated by ionizing radiation, AlphaScreen SureFire); assay type: cell-based; conditions: phosphorylated Chk2 in NCI-H460 cells, ionizing radiation 8Gy, 1 hour after test compound treatment; read-out: ATM inhibitory activity
T1 construct: detecting phosphorylation of Chk2 in a human non-small cell lung cancer cell line NCI-H460 (ATCC company); host or cells: NCI-H460 human non-small cell lung cancer cells
T1 sequence (Q13315 whole entry): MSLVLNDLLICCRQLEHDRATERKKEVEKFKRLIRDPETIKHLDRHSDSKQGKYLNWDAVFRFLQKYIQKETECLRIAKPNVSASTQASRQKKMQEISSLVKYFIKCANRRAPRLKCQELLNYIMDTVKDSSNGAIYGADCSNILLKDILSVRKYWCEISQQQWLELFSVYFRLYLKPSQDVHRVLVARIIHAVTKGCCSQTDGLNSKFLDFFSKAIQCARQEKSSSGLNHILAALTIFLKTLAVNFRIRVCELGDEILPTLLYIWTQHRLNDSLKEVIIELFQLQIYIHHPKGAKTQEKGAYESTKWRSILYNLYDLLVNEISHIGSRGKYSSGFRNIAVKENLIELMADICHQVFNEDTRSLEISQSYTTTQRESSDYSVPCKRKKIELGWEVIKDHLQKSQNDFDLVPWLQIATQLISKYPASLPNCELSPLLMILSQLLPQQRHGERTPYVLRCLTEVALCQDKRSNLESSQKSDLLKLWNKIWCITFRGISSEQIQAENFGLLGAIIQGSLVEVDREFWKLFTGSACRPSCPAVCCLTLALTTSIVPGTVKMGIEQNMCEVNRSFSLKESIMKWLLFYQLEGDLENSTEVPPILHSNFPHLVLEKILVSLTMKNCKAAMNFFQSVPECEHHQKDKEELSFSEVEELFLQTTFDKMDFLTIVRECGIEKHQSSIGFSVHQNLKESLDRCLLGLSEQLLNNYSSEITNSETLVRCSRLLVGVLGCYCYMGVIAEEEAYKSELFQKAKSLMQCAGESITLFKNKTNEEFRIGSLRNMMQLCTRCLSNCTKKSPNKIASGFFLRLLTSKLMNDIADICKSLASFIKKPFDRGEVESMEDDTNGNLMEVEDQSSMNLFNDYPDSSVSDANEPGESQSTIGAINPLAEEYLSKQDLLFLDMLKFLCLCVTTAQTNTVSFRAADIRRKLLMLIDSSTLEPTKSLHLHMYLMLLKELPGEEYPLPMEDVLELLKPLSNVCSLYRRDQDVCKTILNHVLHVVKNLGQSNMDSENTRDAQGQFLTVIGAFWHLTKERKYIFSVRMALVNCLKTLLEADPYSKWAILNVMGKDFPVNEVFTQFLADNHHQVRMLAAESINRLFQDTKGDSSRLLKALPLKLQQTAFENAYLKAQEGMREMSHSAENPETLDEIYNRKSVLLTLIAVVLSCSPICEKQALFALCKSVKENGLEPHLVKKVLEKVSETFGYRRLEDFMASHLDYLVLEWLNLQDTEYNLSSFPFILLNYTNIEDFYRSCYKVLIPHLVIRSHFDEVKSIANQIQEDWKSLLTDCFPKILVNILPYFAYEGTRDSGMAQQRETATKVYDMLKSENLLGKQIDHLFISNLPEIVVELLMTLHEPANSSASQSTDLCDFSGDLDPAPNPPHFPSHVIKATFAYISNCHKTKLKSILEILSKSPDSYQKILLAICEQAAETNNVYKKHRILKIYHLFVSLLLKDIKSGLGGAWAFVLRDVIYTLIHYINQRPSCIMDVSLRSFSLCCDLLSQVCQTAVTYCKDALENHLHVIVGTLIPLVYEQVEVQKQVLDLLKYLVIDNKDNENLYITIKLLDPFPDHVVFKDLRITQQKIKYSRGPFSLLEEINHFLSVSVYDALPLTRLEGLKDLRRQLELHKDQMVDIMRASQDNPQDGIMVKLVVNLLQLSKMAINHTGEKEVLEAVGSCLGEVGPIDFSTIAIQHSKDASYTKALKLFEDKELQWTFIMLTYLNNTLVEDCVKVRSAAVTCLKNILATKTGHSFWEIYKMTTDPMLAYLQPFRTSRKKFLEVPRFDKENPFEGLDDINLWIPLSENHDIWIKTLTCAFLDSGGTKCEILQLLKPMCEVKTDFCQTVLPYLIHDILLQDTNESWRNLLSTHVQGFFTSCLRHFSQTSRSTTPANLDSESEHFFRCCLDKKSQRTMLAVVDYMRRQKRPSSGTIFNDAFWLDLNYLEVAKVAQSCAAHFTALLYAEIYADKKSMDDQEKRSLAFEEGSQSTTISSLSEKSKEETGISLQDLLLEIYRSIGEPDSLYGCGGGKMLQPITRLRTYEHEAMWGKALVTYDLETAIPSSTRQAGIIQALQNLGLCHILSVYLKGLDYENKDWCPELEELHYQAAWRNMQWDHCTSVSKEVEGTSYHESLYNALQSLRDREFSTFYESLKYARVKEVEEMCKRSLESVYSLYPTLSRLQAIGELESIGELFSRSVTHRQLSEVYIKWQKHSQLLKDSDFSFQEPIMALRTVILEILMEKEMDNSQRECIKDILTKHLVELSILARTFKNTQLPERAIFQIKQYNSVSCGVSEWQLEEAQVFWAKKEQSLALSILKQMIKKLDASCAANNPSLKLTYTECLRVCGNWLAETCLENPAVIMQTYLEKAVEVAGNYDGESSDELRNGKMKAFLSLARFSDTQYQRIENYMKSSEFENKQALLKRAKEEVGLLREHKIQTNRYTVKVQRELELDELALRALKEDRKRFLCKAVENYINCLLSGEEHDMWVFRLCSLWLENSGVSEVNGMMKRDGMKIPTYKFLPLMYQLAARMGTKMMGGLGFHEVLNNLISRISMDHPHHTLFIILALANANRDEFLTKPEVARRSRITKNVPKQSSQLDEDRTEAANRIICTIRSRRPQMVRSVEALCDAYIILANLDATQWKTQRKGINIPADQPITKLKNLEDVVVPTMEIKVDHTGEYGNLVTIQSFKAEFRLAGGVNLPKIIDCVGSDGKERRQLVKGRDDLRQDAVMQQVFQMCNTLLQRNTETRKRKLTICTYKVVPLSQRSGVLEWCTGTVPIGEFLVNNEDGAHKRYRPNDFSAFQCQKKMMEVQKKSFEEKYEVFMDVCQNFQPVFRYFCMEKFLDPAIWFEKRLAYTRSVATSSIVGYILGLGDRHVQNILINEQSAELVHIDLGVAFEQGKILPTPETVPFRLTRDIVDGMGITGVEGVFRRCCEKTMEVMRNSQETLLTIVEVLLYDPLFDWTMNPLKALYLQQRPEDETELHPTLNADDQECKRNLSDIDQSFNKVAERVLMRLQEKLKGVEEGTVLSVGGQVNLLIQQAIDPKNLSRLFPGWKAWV
Method in brief: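 NCI-H460 cells, compound 1 h pre-treatment, 8Gy IR, further 1 h at 37° C in 5% CO2. Read-out: phospho-Chk2 via AlphaScreen SureFire. % inhibition relative to IR-induced signal window (irradiated vs non-irradiated drug-free wells).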

[1] = system: human non-small cell lung cancer cell line NCI-H460; test: Cell proliferation inhibition test by sensitivity-enhancing to ionizing radiation (Cell Titer Glo); assay type: cell-based; conditions: Homo sapiens, concentration in which SER became 2, NCI-H460 cells, ionizing radiation 2 Gy, cultured 120 hour
Method in brief: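 Radiosensitisation measured as SER, a ratio of Cell Titer Glo luminescence in irradiated vs unirradiated plates relative to DMSO; SER2, the concentration yielding SER 2, came from sigmoidal regression. Compound (0.1% DMSO) was given 24 h post-seeding, 2 Gy applied 30 min later, then 120 hour culture at 37° C.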

pIC50 (ATM)	pIC50 ([1]; NCI-H460, 120 h, read-out: SER2)	SMILES	SER2 (concentration at which the radiation sensitivity-enhancement ratio reaches 2) ([1]; NCI-H460, 120 h) [nM]	SER2 (concentration at which the radiation sensitivity-enhancement ratio reaches 2) [1] [nM]
> 7.00	–	Cc1cccc(C(CN(C)C)Nc2ccc3c(c2)Sc2cccc(-c4cc(N5CCOCC5)cc(=O)[nH]4)c2S3)n1 (stereo not drawn) [Example 1-22-3, 6-(7-((2-(Dimethylamino)-1-(6-methylpyridin-2-yl)ethyl)amino)thianthren-1-yl)-4-morpholino pyridin-2 (1H)-one]	< 100	–
> 7.00	–	COCCOCC(Nc1ccc2c(c1)Sc1cccc(-c3cc(N4CCOCC4)cc(=O)[nH]3)c1S2)c1nccc(C)n1 (stereo not drawn) [Example 1-12-97, 6-(7-((2-(2-Methoxyethoxy)-1-(4-methylpyrimidin-2-yl)ethyl)amino)thianthren-1-yl)-4-morpholino pyridin-2(1H)-one]	100 to 500	–
> 7.00	–	Cc1ccnc(CNc2ccc3c(c2)Sc2cccc(-c4cc(N5CCOCC5)cc(=O)[nH]4)c2O3)c1 [Example 4-8-19, 6-(8-(((4-Methylpyridin-2-yl)methyl)amino)phenoxathiin-4-yl)-4-morpholino pyridin-2(1H)-one]	100 to 500	–
> 7.00	–	COCCN1CCC(Nc2ccc3c(c2)Sc2cccc(-c4cc(N5CCOCC5)cc(=O)[nH]4)c2S3)CC1 [Example 1-26-1, 6-(7-((1-(2-methoxyethyl)piperidin-4-yl)amino)thianthren-1-yl)-4-morpholinopyridin-2(1H)-one]	100 to 500	–
> 7.00	–	O=c1cc(N2CCOCC2)cc(-c2cccc3c2Sc2ccc(NC4CCCC4N4CCOCC4)cc2S3)[nH]1 (single isomer, unassigned) [Example 1-16-1-2, 4-morpholino-6-(7-((2-morpholinocyclopentyl)amino)thianthren-1-yl)pyridin-2(1H)-one]	< 100	–
> 7.00	–	COCC(Nc1ccc2c(c1)Cc1cccc(-c3cc(N4CCOCC4)cc(=O)[nH]3)c1O2)c1cccc(C)n1 (stereo not drawn) [Example 2-14-45, 6-(7-((2-Methoxy-1-(6-methylpyridin-2-yl)ethyl)amino)-9H-xanthen-4-yl)-4-morpholino pyridin-2 (1H)-one]	100 to 500	–
> 7.00	–	COc1cncc(CNc2ccc3c(c2)Sc2cccc(-c4cc(N5CCOCC5)cc(=O)[nH]4)c2S3)c1 [Example 1-44-1, 6-(7-(((5-methoxypyridin-3-yl)methyl)amino)thianthren-1-yl)-4-morpholinopyridin-2(1H)-one]	500 to 2000	–
> 7.00	6.30 to 7.00	O=c1cc(N2CCOCC2)cc(-c2cccc3c2Oc2ccc(NCc4cc(-c5cccnc5)ccn4)cc2C3)[nH]1 [Example 2-2-72]	–	–
> 7.00	–	O=c1cc(N2CCOCC2)cc(-c2cccc3c2Sc2ccc(NCCN4CCOCC4)cc2S3)[nH]1 [Example 1-10-7, 4-Morpholino-6-(7-((2-morpholinoethyl)amino)thianthren-1-yl)pyridin-2 (1H)-one]	100 to 500	–
> 7.00	–	O=c1cc(N2CCOCC2)cc(-c2cccc3c2Oc2ccc(NCc4cccc(Cl)n4)cc2S3)[nH]1 [Example 4-4-20, 6-(8-(((6-Chloropyridin-2-yl)methyl)amino)phenoxathiin-4-yl)-4-morpholino pyridin-2(1H)-one]	100 to 500	–
> 7.00	–	O=c1cc(N2CCOCC2)cc(-c2cccc3c2Oc2ccc(NCc4cc(Cl)ccn4)cc2S3)[nH]1 [Example 4-4-2, 6-(8-(((4-Chloropyridin-2-yl)methyl)amino)phenoxathiin-4-yl)-4-morpholino pyridin-2(1H)-one]	100 to 500	–
> 7.00	–	COc1cncc(CNc2ccc3c(c2)Cc2cccc(-c4cc(N5CCOCC5)cc(=O)[nH]4)c2O3)n1 [Example 2-13-9, 6-(7-(((6-Methoxypyrazin-2-yl)methyl)amino)-9H-xanthen-4-yl)-4-morpholino pyridin-2(1H)-one]	500 to 2000	–
> 7.00	–	CC(Nc1ccc2c(c1)Cc1cccc(-c3cc(N4CCOCC4)cc(=O)[nH]3)c1O2)c1cccc(F)n1 (stereo not drawn) [Example 2-14-21, 6-(7-((1-(6-Fluoropyridin-2-yl)ethyl)amino)-9H-xanthen-4-yl)-4-morpholino pyridin-2(1H)-one]	100 to 500	–
> 7.00	–	COC(=O)C(Nc1ccc2c(c1)Sc1cccc(-c3cc(N4CCOCC4)cc(=O)[nH]3)c1S2)c1ccc(C)cn1 (stereo not drawn) [Example 1-12-108, Methyl 2-(5-methylpyridin-2-yl)-2-((6-(4-morpholino-6-oxo-1,6-dihydropyridin-2-yl)thianthren-2-yl)amino) acetate]	100 to 500	–
> 7.00	–	CNc1ncc(CNc2ccc3c(c2)Sc2cccc(-c4cc(N5CCOCC5)cc(=O)[nH]4)c2S3)cn1 [Example 1-12-46, 6-(7-(((2-(Methylamino)pyrimidin-5-yl)methyl)amino)thianthren-1-yl)-4-morpholino pyridin-2(1H)-one]	100 to 500	–
> 7.00	–	O=c1cc(N2CCOCC2)cc(-c2cccc3c2Oc2ccc(NCc4cc(Cl)ccn4)cc2C3)[nH]1 [Example 2-2-64, 6-(7-(((4-Chloropyridin-2-yl)methyl)amino)-9H-xanthen-4-yl)-4-morpholino pyridin-2(1H)-one]	100 to 500	–
> 7.00	–	COc1cc(OC)nc(CNc2ccc3c(c2)Cc2cccc(-c4cc(N5CCOCC5)cc(=O)[nH]4)c2O3)n1 [Example 2-2-51, 6-(7-(((4,6-Dimethoxypyrimidin-2-yl)methyl)amino)-9H-xanthen-4-yl)-4-morpholino pyridin-2 (1H)-one]	500 to 2000	–
> 7.00	–	O=c1cc(N2CCOCC2)cc(-c2cccc3c2Oc2ccc(NCc4cc(-n5cccc5)ccn4)cc2C3)[nH]1 [Example 2-2-71, 6-(7-(((4-(1H-Pyrrol-1-yl)pyridin-2-yl)methyl)amino)-9H-xanthen-4-yl)-4-morpholino pyridin-2(1H)-one]	100 to 500	–
> 7.00	–	CN1CCCC(Nc2ccc3c(c2)Sc2cccc(-c4cc(N5CCOCC5)cc(=O)[nH]4)c2S3)C1 (stereo not drawn) [Example 1-31-2, 6-(7-((1-Methylpiperidin-3-yl)amino)thianthren-1-yl)-4-morpholinopyridin-2(1H)-one]	100 to 500	–

SMILES	pIC50 (ATM)	pIC50 ([1]; NCI-H460, 120 h, read-out: SER2)	SER2 (concentration at which the radiation sensitivity-enhancement ratio reaches 2) ([1]; NCI-H460, 120 h) [nM]	SER2 (concentration at which the radiation sensitivity-enhancement ratio reaches 2) [1] [nM]
O=c1cc(N2CCOCC2)cc(-c2cccc3c2Oc2ccc(NC4CCN(CCc5ccccc5)CC4)cc2S3)[nH]1 [Example 4-10, 4-Morpholino-6-(8-((1-phenethylpiperidin-4-yl)amino)phenoxathiin-4-yl)pyridin-2(1H)-one]	> 7.00	–	100 to 500	–
CC1COCCN1CCNc1ccc2c(c1)Sc1cccc(-c3cc(N4CCOCC4)cc(=O)[nH]3)c1S2 (stereo not drawn) [Example 1-16-7, 6-(7-((2-(3-Methylmorpholino)ethyl)amino)thianthren-1-yl)-4-morpholinopyridin-2(1H)-one]	> 7.00	–	–	100 to 500
